Tests used:
Assay type in all cases: cell-based
[1] = test system: Human normal fibroblasts; experiment: Collagen biosynthesis (procollagen type I C-peptide level) in human normal fibroblasts; conditions: positive control 250 uM, PICP
Experimental: Human normal fibroblasts were inoculated in a 48-well microplate ([…]) containing DMEM (Dulbecco's Modified Eagle Medium), followed by culture at 37° C. for 24 hours. […] After the culture, supernatant of each well was collected and procollagen type I C-peptide (PICP) level therein was measured using the kit (Takara, Japan) to calculate the amount of collagen newly synthesized. PICP level was calculated as ng/ml. […] The increasing rate of collagen biosynthesis was calculated according to the following Math Figure 1 and the results are shown in Table 2.

[2] = test system: Human normal fibroblasts; experiment: Fibroblast proliferation (MTT); conditions: positive control 10 ng/ml
Experimental: Human normal fibroblasts were inoculated in a 96-well microplate (1×10^4 cells/well) containing DMEM, followed by culture at 37° C. for 24 hours. The Phaseolus radiatus extract prepared in Comparative Manufacturing Example 1, the Phaseolus radiatus liquor of yeast-fermentation prepared in Comparative Manufacturing Example 2, the Phaseolus radiatus liquor of lactic acid bacterium-fermentation prepared in Comparative Manufacturing Example 3, the Phaseolus radiatus extract of enzyme treatment-yeast fermentation prepared in Comparative Manufacturing Example 4, the Phaseolus radiatus extract of enzyme treatment-lactic acid bacterium fermentation prepared in Comparative Manufacturing Example 5, the Phaseolus radiatus extract of yeast fermentation-enzyme treatment prepared in Manufacturing Example 1 and the Phaseolus radiatus extract of lactic acid bacterium fermentation-enzyme treatment prepared in Manufacturing Example 2 were treated to the experimental group in which the final concentration of the respective extracts or liquors was 1% and medium was replaced with serum-free medium, followed by further culture for 24 hours. […] Particularly, MTT (Sigma, USA) solution (3 mg/ml) was added thereto and then Absorbance at 570 nm was measured using ELISA reader (Molecular Devices, USA). […]

[3] = test system: Human skin cells, fibroblasts; experiment: Alleviation of cell irritation caused by lactic acid (MTT cell survival); conditions: lactic acid 0.2% only (comparative control), 12 hours
Experimental: Human skin cells, fibroblasts (KCTC, Korean Collection for Type Culture, Korea), were cultured in T-75 flask (Falcon, USA) until the cell confluency reached 80%. The cells were transferred to a 96-well plate (Falcon, USA) at the density of 3×10^4 cells/well, followed by further culture for 24 hours. After the culture, the cells were observed under microscope if they were completely adhered and well-grown. As a stimulus for skin, lactic acid (0.2%) was used. Particularly, 200 μl of each DMEM supplemented with 0.2% lactic acid and DMEM not-containing lactic acid was added to each well, to which the Phaseolus radiatus extract, the Phaseolus radiatus liquor of yeast-fermentation, the Phaseolus radiatus liquor of lactic acid bacterium-fermentation, the Phaseolus radiatus extract of enzyme treatment-yeast fermentation, the Phaseolus radiatus extract of enzyme treatment-lactic acid bacterium fermentation (Comparative Manufacturing Examples 1-5), and the Phaseolus radiatus extract of fermentation-enzyme treatment (Manufacturing Examples 1 and 2) were added thereto at the concentration of 1.0% (v/v). […] Particularly, MTT (Sigma, USA) solution (3 mg/ml) was added thereto and then Absorbance at 570 nm was measured using ELISA reader (Molecular Devices, USA).

Molecule: O=C1O[C@H]([C@@H](O)CO)C(O)=C1O [Ascorbic acid, ascorbic acid]
- Increasing rate of collagen biosynthesis (%) [1]: 72.8%

Molecule: TGF-β
- Proliferation rate of fibroblast (%) [2]: 186.6%

Molecule: CC(O)C(=O)O (stereo not drawn) [lactic acid]
- Proliferation rate of fibroblast (%) [3]: 0.0%

Reference: patent US20110117227A1, “COSMETIC COMPOSITION FOR ANTI-AGING OF THE SKIN COMPRISING PHASEOLUS RADIATUS SEED EXTRACTS BY FERMENTATION AND ENZYME TREATMENT” (COREANA COSMETICS, CO., LTD., priority 2008, published 2011)
